Legend:
[1] = test system: ADP-induced platelet aggregation; experiment: in vitro anti-platelet aggregation induced by ADP (platelet-rich plasma, aggregometer); assay type: cell-based; conditions: Homo sapiens; platelet-rich plasma of healthy volunteers, inductive agent ADP (10 uM), 37° C.
Excerpt: (§1) The inventor conducted the anti-platelet aggregation activity screening for the compounds of the present invention, carried out the anti-platelet aggregation test by using the blood platelet which was closed to human physiological state and was not washed with water, and conducted the activity test of the in vitro anti-platelet aggregation induced by ADP, and also the activity test of the in vitro anti-platelet aggregation induced by AA (arachidonic acid) for some compounds. The present invention firstly discloses the activity test of the in vitro anti-platelet aggregation induced by AA conducted with said type of compounds.
(§2) The anti-platelet aggregation test of the compounds was conducted by the aggregometer (Model 400VS, Chrono-Log, Haverston, Pa.) from Chrono-Log Corp. ADP, AA (arachidonic acid), DMSO and trisodium citrate were purchased from Sigama.
(§3) The fasting venous blood of the subjects was collected, and placed into a 50 mL sampling tube containing 3.8% sodium citrate, and mixed homogeneously in a ratio of 1:9 (v/v) for anticoagulation, and centrifugalized at 300 rpm/min for 20 min.
(§4) The supernatant was taken to obtain platelet-rich blood plasma (PRP). The residual blood was then centrifugalized at 900 rpm/min for 10 min, and the supernatant fluid was taken to obtain platelet-poverty blood plasma (PPP). The analysis of platelet aggregation was conducted by using the aggregometer (Chrono-Log Corp.), wherein PRP and PPP were respectively added to two turbidimetric tubes. In the aggregometer, platelet-poverty blood plasma (PPP) was used as the control group. DMSO was used as the negative control. The turbidimetric tubes were incubated at 37° C. for 3 min. The PRP was stirred with a stirring rod at 900 rpm/min for 10-20 s, and the inductive agent ADP (10 uM) or AA (0.5 mM) was added to PRP, and start to record the aggregated wave patterns. The chart speed of the recorder (Model 707, Chrono-Log, Haverston, Pa., USA) was set up to be 1 cm min^−1, and the aggregation reaction was recorded for not less than 3 min. Finally, the apparatus automatically delineated the aggregation curve and calculated the results, i.e. maximum platelet aggregation rate. When the platelet aggregation was lower than 50% of the control group, the IC50 of the compound was calculated.

[2] = test system: AA (arachidonic acid)-induced platelet aggregation; experiment: in vitro anti-platelet aggregation induced by AA (arachidonic acid) (platelet-rich plasma, aggregometer); assay type: cell-based; conditions: Homo sapiens; platelet-rich plasma of healthy volunteers, inductive agent AA (0.5 mM), 37° C.
Excerpt: as §1, §2, §3, §4

Row | SMILES | IC50 [1] | IC50 [2]
1 | CCCCCCNc1nc(SCCC)nc2c1ncn2[C@@H]1O[C@H](CO)[C@@H](O)[C@H]1O [Example 8, 2-propylthio-6-n-hexylamino-9-β-D-ribofuranosyl purine] | 102 µM | 
2 | CCSc1nc(NC2CCCCC2)c2ncn([C@@H]3O[C@H](CO)[C@@H](O)[C@H]3O)c2n1 [Example 9, 2-ethylthio-6-cyclohexylamino-9-β-D-ribofuranosyl purine] | 104 µM | 
3 | CCCSc1nc(NC2CCCCC2)c2ncn([C@@H]3O[C@H](CO)[C@@H](O)[C@H]3O)c2n1 [Example 10, 2-propylthio-6-cyclohexylamino-9-β-D-ribofuranosyl purine] | 151 µM | 
4 | CC(C)Sc1nc(NC2CCCCC2)c2ncn([C@@H]3O[C@H](CO)[C@@H](O)[C@H]3O)c2n1 [Example 11, 2-isopropylthio-6-cyclohexylamino-9-β-D-ribofuranosyl purine] | 187 µM | 
5 | CCCCSc1nc(NC2CCCCC2)c2ncn([C@@H]3O[C@H](CO)[C@@H](O)[C@H]3O)c2n1 [Example 12, 2-butylthio-6-cyclohexylamino-9-β-D-ribofuranosyl purine] | 83 µM | 
6 | CCSc1nc(NCc2ccccc2)c2ncn([C@@H]3O[C@H](CO)[C@@H](O)[C@H]3O)c2n1 [Example 13, 2-ethylthio-6-benzylamino-9-β-D-ribofuranosyl purine] | 176 µM | 
7 | CCCSc1nc(NCc2ccccc2)c2ncn([C@@H]3O[C@H](CO)[C@@H](O)[C@H]3O)c2n1 [Example 14, 2-propylthio-6-benzylamino-9-β-D-ribofuranosyl purine] | 216 µM | 
8 | CCCCSc1nc(NCc2ccccc2)c2ncn([C@@H]3O[C@H](CO)[C@@H](O)[C@H]3O)c2n1 [Example 15, 2-butylthio-6-benzylamino-9-β-D-ribofuranosyl purine] | 202 µM | 
9 | CCSc1nc(NC(C)c2ccccc2)c2ncn([C@@H]3O[C@H](CO)[C@@H](O)[C@H]3O)c2n1 (stereo partly drawn) [Example 16, 2-ethylthio-6-(1-phenylethyl)amino-9-β-D-ribofuranosyl purine] | 197 µM | 
10 | CCCSc1nc(NCc2ccc(OC)cc2)c2ncn([C@@H]3O[C@H](CO)[C@@H](O)[C@H]3O)c2n1 [Example 17, 2-propylthio-6-([4-methoxylbenzyl]amino)-9-β-D-ribofuranosyl purine] | 181 µM | 
11 | CSc1nc(NCCc2ccccc2)c2ncn([C@@H]3O[C@H](CO)[C@@H](O)[C@H]3O)c2n1 [Example 18, 2-methylthio-6-phenylethylamino-9-β-D-ribofuranosyl purine] | 36 µM | 3 µM
12 | CCSc1nc(NCCc2ccccc2)c2ncn([C@@H]3O[C@H](CO)[C@@H](O)[C@H]3O)c2n1 [Example 19, 2-ethylthio-6-phenylethylamino-9-β-D-ribofuranosyl purine] | 29 µM | 30 µM
13 | CCCSc1nc(NCCc2ccccc2)c2ncn([C@@H]3O[C@H](CO)[C@@H](O)[C@H]3O)c2n1 [Example 20, 2-propylthio-6-phenylethylamino-9-β-D-ribofuranosyl purine] | 52 µM | 44 µM
14 | CCCCSc1nc(NCCc2ccccc2)c2ncn([C@@H]3O[C@H](CO)[C@@H](O)[C@H]3O)c2n1 [Example 21, 2-butylthio-6-phenylethylamino-9-β-D-ribofuranosyl purine] | 59 µM | > 300 µM
15 | COc1ccc(CCNc2nc(SC)nc3c2ncn3[C@@H]2O[C@H](CO)[C@@H](O)[C@H]2O)cc1 [Example 22, 2-methylthio-6-([4-methoxylphenylethyl]-amino)-9-β-D-ribofuranosyl purine] | 153 µM | 
16 | CCSc1nc(NCCc2ccc(OC)cc2)c2ncn([C@@H]3O[C@H](CO)[C@@H](O)[C@H]3O)c2n1 [Example 23, 2-ethylthio-6-([4-methoxylphenylethyl]amino)-9-β-D-ribofuranosyl purine] | 89 µM | 
17 | CCCSc1nc(NCCc2ccc(OC)cc2)c2ncn([C@@H]3O[C@H](CO)[C@@H](O)[C@H]3O)c2n1 [Example 24, 2-propylthio-6-([4-methoxylphenylethyl]amino)-9-β-D-ribofuranosyl purine] | 267 µM | 
18 | CCCCSc1nc(NCCc2ccc(OC)cc2)c2ncn([C@@H]3O[C@H](CO)[C@@H](O)[C@H]3O)c2n1 [Example 25, 2-butylthio-6-([4-methoxylphenylethyl]amino)-9-β-D-ribofuranosyl purine] | 93 µM | 
19 | CCSc1nc(NCCc2cccc(OC)c2)c2ncn([C@@H]3O[C@H](CO)[C@@H](O)[C@H]3O)c2n1 [Example 26, 2-ethylthio-6-([3-methoxylphenylethyl]amino)-9-β-D-ribofuranosyl purine] | 38 µM | > 300 µM
20 | CCCSc1nc(NCCc2cccc(OC)c2)c2ncn([C@@H]3O[C@H](CO)[C@@H](O)[C@H]3O)c2n1 [Example 27, 2-propylthio-6-([3-methoxylphenylethyl]amino)-9-β-D-ribofuranosyl purine] | 69 µM | 
